One assay concerns the target FLT3 kinase (Homo sapiens (Human), UniProt P36888). Put plainly: Competition binding assay (Kd), FLT3. The following applies: competition binding assay.
The next assay deals with KIT kinase (Homo sapiens (Human), UniProt P10721). Put plainly: Competition binding assay (Kd), KIT. The following applies: competition binding assay. The procedure, abridged: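 Kd derived from eleven-point threefold serial dilutions of compound competing with bead-bound ligand for kinase; bound kinase eluted and measured by quantitative PCR. Kinase supplied either as a T7 phage fusion or expressed in HEK-293 cells with a DNA tag; DMSO served as control.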
KIT kinase, sequence (P10721 26-976): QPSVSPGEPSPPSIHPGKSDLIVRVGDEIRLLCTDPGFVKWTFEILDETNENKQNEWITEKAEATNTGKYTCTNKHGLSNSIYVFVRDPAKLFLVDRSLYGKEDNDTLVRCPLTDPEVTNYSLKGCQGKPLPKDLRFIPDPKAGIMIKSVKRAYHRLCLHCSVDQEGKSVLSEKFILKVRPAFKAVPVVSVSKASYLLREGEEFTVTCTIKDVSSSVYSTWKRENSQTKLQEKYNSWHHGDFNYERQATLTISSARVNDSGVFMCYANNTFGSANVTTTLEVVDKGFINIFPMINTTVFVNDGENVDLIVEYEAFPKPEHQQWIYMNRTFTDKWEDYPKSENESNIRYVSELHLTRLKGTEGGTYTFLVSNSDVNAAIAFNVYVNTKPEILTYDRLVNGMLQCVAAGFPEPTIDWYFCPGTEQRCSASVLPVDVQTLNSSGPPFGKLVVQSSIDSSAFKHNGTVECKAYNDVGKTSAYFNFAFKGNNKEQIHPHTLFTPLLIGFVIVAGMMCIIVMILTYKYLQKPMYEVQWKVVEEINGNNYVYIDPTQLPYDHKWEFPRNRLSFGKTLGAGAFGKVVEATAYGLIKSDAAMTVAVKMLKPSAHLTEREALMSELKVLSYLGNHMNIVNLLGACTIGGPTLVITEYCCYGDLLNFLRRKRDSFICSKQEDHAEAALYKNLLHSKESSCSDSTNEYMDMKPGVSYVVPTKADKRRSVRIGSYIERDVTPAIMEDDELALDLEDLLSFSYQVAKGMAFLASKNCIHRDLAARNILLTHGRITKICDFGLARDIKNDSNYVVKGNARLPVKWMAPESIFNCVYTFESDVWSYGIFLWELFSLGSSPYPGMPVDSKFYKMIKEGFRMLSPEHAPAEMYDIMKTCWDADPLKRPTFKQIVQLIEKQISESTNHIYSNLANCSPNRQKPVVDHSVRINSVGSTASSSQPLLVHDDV

The next assay concerns the target FLT3-ITD (Homo sapiens (Human), UniProt P36888, INS600HVDFREYEYD). Put plainly: pFLT3 MSD assay, Ba/F3 FLT3-ITD. The class given is cell-based. The following applies: Ba/F3 FLT3-ITD cells, 2 hours, read-out: BaF3-FLT3-ITD pFlt3 IC50.

Each structure is given as a SMILES string.

Usually Kd stands for the free concentration of one partner at which half of the binding sites on the other are occupied at equilibrium, for simple one-to-one binding. As usually defined, the IC50 is the concentration that inhibits the measured activity by half.

FLT3 kinase, sequence (P36888 27-993): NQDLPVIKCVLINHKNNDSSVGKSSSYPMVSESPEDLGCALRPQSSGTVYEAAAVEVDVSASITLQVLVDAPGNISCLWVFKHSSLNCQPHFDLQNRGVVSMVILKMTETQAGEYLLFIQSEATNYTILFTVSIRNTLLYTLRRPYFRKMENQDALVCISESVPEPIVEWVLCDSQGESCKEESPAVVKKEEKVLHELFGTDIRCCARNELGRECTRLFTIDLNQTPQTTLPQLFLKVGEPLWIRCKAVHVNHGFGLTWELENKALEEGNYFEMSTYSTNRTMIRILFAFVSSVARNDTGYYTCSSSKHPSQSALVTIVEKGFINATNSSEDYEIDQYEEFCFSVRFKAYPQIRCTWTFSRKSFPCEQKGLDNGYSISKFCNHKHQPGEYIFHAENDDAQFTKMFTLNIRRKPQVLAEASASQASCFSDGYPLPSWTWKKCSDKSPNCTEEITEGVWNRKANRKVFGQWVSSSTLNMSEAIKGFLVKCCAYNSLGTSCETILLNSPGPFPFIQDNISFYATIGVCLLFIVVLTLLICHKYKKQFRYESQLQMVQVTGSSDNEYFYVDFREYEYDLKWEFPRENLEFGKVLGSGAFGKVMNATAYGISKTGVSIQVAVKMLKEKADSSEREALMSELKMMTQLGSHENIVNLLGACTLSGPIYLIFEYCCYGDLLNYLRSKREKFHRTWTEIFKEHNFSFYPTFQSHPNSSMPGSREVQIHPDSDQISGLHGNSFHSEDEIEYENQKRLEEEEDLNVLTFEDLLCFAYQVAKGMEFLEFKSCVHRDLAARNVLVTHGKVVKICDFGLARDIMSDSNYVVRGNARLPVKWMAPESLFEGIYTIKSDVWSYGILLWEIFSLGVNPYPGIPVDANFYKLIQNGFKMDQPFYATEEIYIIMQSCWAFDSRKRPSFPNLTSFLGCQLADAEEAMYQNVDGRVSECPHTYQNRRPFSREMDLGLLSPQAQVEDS
FLT3-ITD, sequence (P36888 other isoform, or with tags, fused parts or gaps limits assumed, stated change not applied): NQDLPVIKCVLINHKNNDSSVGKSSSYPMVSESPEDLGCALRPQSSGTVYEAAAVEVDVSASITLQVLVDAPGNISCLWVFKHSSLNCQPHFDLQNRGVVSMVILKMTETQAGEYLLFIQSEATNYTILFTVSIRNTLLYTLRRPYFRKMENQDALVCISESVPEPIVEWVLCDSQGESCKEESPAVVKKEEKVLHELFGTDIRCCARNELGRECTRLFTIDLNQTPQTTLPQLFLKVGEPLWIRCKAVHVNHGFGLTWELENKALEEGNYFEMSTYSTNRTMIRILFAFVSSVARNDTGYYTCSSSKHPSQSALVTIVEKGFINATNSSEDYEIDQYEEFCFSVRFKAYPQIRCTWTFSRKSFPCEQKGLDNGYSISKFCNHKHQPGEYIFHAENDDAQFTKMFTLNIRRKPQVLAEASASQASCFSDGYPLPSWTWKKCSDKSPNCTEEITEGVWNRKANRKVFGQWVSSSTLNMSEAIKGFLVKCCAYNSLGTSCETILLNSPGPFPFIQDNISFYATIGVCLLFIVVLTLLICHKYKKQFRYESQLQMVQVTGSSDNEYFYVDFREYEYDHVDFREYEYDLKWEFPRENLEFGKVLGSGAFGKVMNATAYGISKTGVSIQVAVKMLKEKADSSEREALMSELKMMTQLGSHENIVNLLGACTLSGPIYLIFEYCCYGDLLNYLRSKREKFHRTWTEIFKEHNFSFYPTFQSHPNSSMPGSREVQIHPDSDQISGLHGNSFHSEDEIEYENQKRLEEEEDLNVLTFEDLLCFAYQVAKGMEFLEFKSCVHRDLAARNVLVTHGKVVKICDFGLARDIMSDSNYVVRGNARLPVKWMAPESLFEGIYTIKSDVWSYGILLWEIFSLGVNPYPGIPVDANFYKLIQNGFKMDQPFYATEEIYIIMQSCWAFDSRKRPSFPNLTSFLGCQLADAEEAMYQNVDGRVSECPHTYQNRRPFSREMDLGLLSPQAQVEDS

As for `COCCOc1cc2nc(-c3ccc(CC(=O)Nc4cc(C(C)(C)C(F)(F)F)on4)c(F)c3)cnc2cc1OC` [Example 160, 2-[2-fluoro-4-[6-methoxy-7-(2-methoxy-ethoxy)quinoxalin-2-yl]phenyl]-N-[5-(2,2,2-trifluoro-1,1-dimethyl-ethyl)isoxazol-3-yl]acetamide], the Kd at FLT3 kinase and at KIT kinase was less than 5 nM throughout. The IC50 at FLT3-ITD is less than 10 nM.
Regarding `COc1cc2nc(-c3ccc(CC(=O)Nc4cc(C5(C(F)(F)F)CC5)on4)c(F)c3)cnc2cc1OC1COC1` [Example 144, 2-[2-fluoro-4-[7-methoxy-6-(oxetan-3-yloxy)quinoxalin-2-yl]phenyl]-N-[5-[1-(trifluoro-methyl)cyclopropyl]isoxazol-3-yl]acetamide], the Kd on FLT3 kinase and at KIT kinase was less than 5 nM in each case. Besides, the IC50 on FLT3-ITD is less than 10 nM.
As for `COc1cc2cc(-c3ccc(CC(=O)Nc4cc(C5(C(F)(F)F)CC5)on4)c(F)c3)cnc2cc1OCCOC(C)=O` [Example 127, 2-[[3-[3-fluoro-4-[2-oxo-2-[[5-[1-(trifluoro-methyl)cyclopropyl]isoxazol-3-yl]amino]ethyl]phenyl]-6-methoxy-7-quinolyl]oxy]ethyl acetate], the Kd at FLT3 kinase and on KIT kinase was less than 5 nM throughout. The IC50 at FLT3-ITD is less than 10 nM.
Turning to `CS(=O)(=O)CCNC(=O)c1cc2cc(-c3ccc(CC(=O)Nc4cc(C5(C(F)(F)F)CC5)on4)c(F)c3)cnc2[nH]1` [Example 107, 5-[3-fluoro-4-[2-oxo-2-[[5-[1-(trifluoromethyl)cyclo-propyl]isoxazol-3-yl]amino]ethyl]phenyl]-N-(2-methylsulfonylethyl)-1H-pyrrolo[2,3-b]pyridine-2-carboxamide], the Kd on FLT3 kinase and on KIT kinase was less than 5 nM in each case. Besides, the IC50 on FLT3-ITD was less than 10 nM.
With `COc1cc2nc(-c3ccc(CC(=O)Nc4cc(C5(C(F)(F)F)CC5)on4)c(F)c3)cnc2cc1OC1CN(C)C1` [Example 90, 2-(2-fluoro-4-(7-methoxy-6-((1-methylazetidin-3-yl)oxy)quinoxalin-2-yl)phenyl)-N-(5-(1-(trifluoromethyl)cyclopropyl)isoxazol-3-yl)acetamide], the Kd on FLT3 kinase and on KIT kinase was less than 5 nM each time. In addition, the IC50 on FLT3-ITD is less than 10 nM.
Consider `CCOC(=O)c1nc2cc(OC)c(OC)cc2nc1-c1ccc(CC(=O)Nc2cc(C3(C(F)(F)F)CC3)on2)c(F)c1` [Example 132, ethyl 3-[3-fluoro-4-[2-oxo-2-[[5-[1-(trifluoro-methyl)cyclopropyl]isoxazol-3-yl]amino]ethyl]phenyl]-6,7-dimethoxy-quinoxaline-2-carboxylate], for which the Kd on FLT3 kinase and on KIT kinase was more than 50 nM each time. The IC50 on FLT3-ITD was more than 50 nM.
With `COc1cc2ncc(-c3ccc(CC(=O)Nc4cc(C(C)(C)C(F)(F)F)on4)c(F)c3)cc2c(OC)c1OC` [Example 115, 2-[2-fluoro-4-(5,6,7-trimethoxy-3-quinolyl)phenyl]-N-[5-(2,2,2-trifluoro-1,1-dimethyl-ethyl)isoxazol-3-yl]acetamide], the Kd at FLT3 kinase was less than 5 nM; on KIT kinase it was 5 to 20 nM. Moreover, the IC50 on FLT3-ITD is less than 10 nM.
On to `COCCOc1cc2ncc(-c3ccc(CC(=O)Nc4cc(C5(C(F)(F)F)CC5)on4)c(F)c3)nc2cc1OCCOC` [Example 125, 2-[4-[6,7-bis(2-methoxyethoxy)quinoxalin-2-yl]-2-fluoro-phenyl]-N-[5-[1-(trifluoro-methyl)cyclopropyl]isoxazol-3-yl]acetamide], for which the Kd on FLT3 kinase and at KIT kinase was less than 5 nM throughout. Moreover, the IC50 at FLT3-ITD was less than 10 nM.
On to `O=C(Cc1ccc(-c2cnc3[nH]c(C(=O)NC4CNC4)cc3c2)cc1F)Nc1cc(C2(C(F)(F)F)CC2)on1` [Example 112, N-(azetidin-3-yl)-5-[3-fluoro-4-[2-oxo-2-[[5-[1-(trifluoromethyl)cyclo-propyl]isoxazol-3-yl]amino]ethyl]phenyl]-1H-pyrrolo[2,3-b]pyridine-2-carboxamide], for which the equilibrium dissociation constant (Kd) on FLT3 kinase and on KIT kinase was less than 5 nM each time. Besides, the IC50 at FLT3-ITD is less than 10 nM.
As to `CCOc1cc2ncc(-c3ccc(CC(=O)Nc4cc(C5(C(F)(F)F)CC5)on4)c(F)c3)nc2cc1OCC` [Example 118, 2-[4-(6,7-diethoxyquinoxalin-2-yl)-2-fluoro-phenyl]-N-[5-[1-(trifluoromethyl)cyclo-propyl]isoxazol-3-yl]acetamide], the Kd on FLT3 kinase and at KIT kinase was less than 5 nM throughout. Also, the IC50 at FLT3-ITD was less than 10 nM.
`CN(C)NC(=O)c1cc2cc(-c3ccc(CC(=O)Nc4cc(C5(C(F)(F)F)CC5)on4)c(F)c3)cnc2[nH]1` [Example 117, 2-[4-[2-(dimethylaminocarbamoyl)-1H-pyrrolo[2,3-b]pyridin-5-yl]-2-fluoro-phenyl]-N-[5-[1-(trifluoro-methyl)cyclopropyl]isoxazol-3-yl]acetamide]: the Kd at FLT3 kinase and at KIT kinase was less than 5 nM throughout. Also, the IC50 on FLT3-ITD was less than 10 nM.
In the case of `CC(C)(c1cc(NC(=O)Cc2ccc(-c3cnc4c(N)cccc4c3)cc2F)no1)C(F)(F)F` [Example 151, 2-[4-(8-amino-3-quinolyl)-2-fluoro-phenyl]-N-[5-(2,2,2-trifluoro-1,1-dimethyl-ethyl)isoxazol-3-yl]acetamide], the Kd at FLT3 kinase and on KIT kinase was less than 5 nM throughout. In addition, the IC50 on FLT3-ITD is less than 10 nM.
In the case of `O=C(Cc1ccc(-c2cnc3[nH]ccc3n2)cc1)Nc1cc(C2(C(F)(F)F)CC2)on1` [Example 3, 2-(4-(5H-pyrrolo[2,3-b]pyrazin-2-yl)phenyl)-N-(5-(1-(trifluoromethyl)cyclopropyl)isoxazol-3-yl)acetamide], the Kd on FLT3 kinase and on KIT kinase was less than 5 nM in each case. The IC50 at FLT3-ITD was less than 10 nM.
Turning to `COc1cc2nc(-c3ccc(CC(=O)Nc4cc(C5(C(F)(F)F)CC5)on4)c(F)c3)cnc2cc1OCCN` [Example 167, 2-[4-[6-(2-aminoethoxy)-7-methoxy-quinoxalin-2-yl]-2-fluoro-phenyl]-N-[5-[1-(trifluoromethyl)cyclo-propyl]isoxazol-3-yl]acetamide], the Kd at FLT3 kinase and on KIT kinase was less than 5 nM each time. Further, at FLT3-ITD, the IC50 was less than 10 nM.
For the compound `CC(C)(C)c1cc(NC(=O)Cc2ccc(-c3cnc4[nH]nc(-n5ccnn5)c4c3)cc2)no1` [Example 103, N-(5-tert-butylisoxazol-3-yl)-2-[4-[3-(triazol-1-yl)-1H-pyrazolo[3,4-b]pyridin-5-yl]phenyl]acetamide], the Kd on FLT3 kinase and on KIT kinase was less than 5 nM in each case. At FLT3-ITD, the IC50 was less than 10 nM.
Regarding `CN(C)CCCN(C)C(=O)c1cc2cc(-c3ccc(CC(=O)Nc4cc(C(C)(C)C)on4)cc3)cnc2[nH]1` [Example 67, 5-(4-(2-((5-(tert-butyl)isoxazol-3-yl)amino)-2-oxoethyl)phenyl)-N-(3-(dimethylamino)propyl)-N-methyl-1H-pyrrolo[2,3-b]pyridine-2-carboxamide], the Kd on FLT3 kinase and at KIT kinase was less than 5 nM in each case. Also, the half-inhibitory concentration (IC50) on FLT3-ITD is less than 10 nM.
In the case of `CN(C)CCNC(=O)c1n[nH]c2ncc(-c3ccc(CC(=O)Nc4cc(C(C)(C)C)on4)cc3)cc12` [Example 100, 5-[4-[2-[(5-tert-butylisoxazol-3-yl)amino]-2-oxo-ethyl]phenyl]-N-[2-(dimethylamino)ethyl]-1H-pyrazolo[3,4-b]pyridine-3-carboxamide], the Kd at FLT3 kinase is less than 5 nM; on KIT kinase it was 5 to 20 nM. Also, on FLT3-ITD, the IC50 was less than 10 nM.
As to `CC(=O)OCCOc1cc2ncc(-c3ccc(CC(=O)Nc4cc(C5(C(F)(F)F)CC5)on4)c(F)c3)nc2cc1OCCOC(C)=O` [Example 74, ((2-(3-fluoro-4-(2-oxo-2-((5-(1-(trifluoromethyl)cyclopropyl)isoxazol-3-yl)amino)ethyl)phenyl)quinoxaline-6,7-diyl)bis(oxy))bis(ethane-2,1-diyl) diacetate], the Kd on FLT3 kinase was less than 5 nM; on KIT kinase, 5 to 20 nM. Moreover, the IC50 at FLT3-ITD was less than 10 nM.
For `O=C(Cc1ccc(-c2cnc3cc4c(cc3n2)OCO4)cc1F)Nc1cc(C2(C(F)(F)F)CC2)on1` [Example 119, 2-[4-([1,3]dioxolo[4,5-g]quinoxalin-6-yl)-2-fluoro-phenyl]-N-[5-[1-(trifluoro-methyl)cyclopropyl]isoxazol-3-yl]acetamide] the same measures were less than 5 nM, less than 5 nM and less than 10 nM.
Consider `CN(C)C(=O)COc1cc2ncc(-c3ccc(CC(=O)Nc4cc(C5(C(F)(F)F)CC5)on4)c(F)c3)nc2cc1OCC(=O)N(C)C` [Example 154, 2-[4-[6,7-bis[2-(dimethylamino)-2-oxo-ethoxy]quinoxalin-2-yl]-2-fluoro-phenyl]-N-[5-[1-(trifluoromethyl)cyclo-propyl]isoxazol-3-yl]acetamide], for which the Kd at FLT3 kinase and on KIT kinase was less than 5 nM throughout. The IC50 on FLT3-ITD was less than 10 nM.
With `Cn1cc(-c2n[nH]c3ncc(-c4ccc(CC(=O)Nc5cc(C(C)(C)C)on5)cc4)cc23)cn1` [Example 109, N-(5-tert-butylisoxazol-3-yl)-2-[4-[3-(1-methylpyrazol-4-yl)-1H-pyrazolo[3,4-b]pyridin-5-yl]phenyl]acetamide], the equilibrium dissociation constant (Kd) on FLT3 kinase and at KIT kinase was less than 5 nM throughout. Also, the IC50 on FLT3-ITD was less than 10 nM.
For the compound `COc1cc2nc(OC)c(-c3ccc(CC(=O)Nc4cc(C5(C(F)(F)F)CC5)on4)c(F)c3)nc2cc1OC` [Example 124, 2-[2-fluoro-4-(3,6,7-trimethoxyquinoxalin-2-yl)phenyl]-N-[5-[1-(trifluoro-methyl)cyclopropyl]isoxazol-3-yl]acetamide], the Kd was less than 5 nM on FLT3 kinase and 5 to 20 nM on KIT kinase. Moreover, the IC50 at FLT3-ITD lay within 10 to 20 nM.

Source of the values: US9725465B2, “Biaryl acetamide compounds and methods of use thereof” (Ambit Biosciences Corporation, priority 2013, dated 2017).
